The record followed here is article PMC8951032, “Study of Biological Activities and ADMET-Related Properties of Novel Chlorinated N-arylcinnamamides” (International Journal of Molecular Sciences, 2022).

Molecules are shown by their SMILES. Values after ≈ are worked out from the molar mass of the structure shown. Like-named read-outs stand apart in the source and are kept apart here.

The subject of series [1] is Mycobacterium marinum CAMP 5644. Kind of series: In vitro antimycobacterial activity, broth dilution MIC. It counts as cell-based. The settings on record: CAMP5644, 504 h.
Series [2] can be described thus: Lipophilicity determination by RP-HPLC (log k, log D). It counts as physicochemical. The conditions noted are these: for log k: MeOH 72%/H2O 28%; for log D6.5: MeOH 72%/acetate buffered saline pH 6.5; for log D7.4: MeOH 72%/acetate buffered saline pH 7.4. In a few lines: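 Isocratic RP-HPLC on C18 column, 40 °C, 1.0 mL/min, UV 210 nm, dead time from KI. log k from MeOH/water 72:28; log D at pH 7.4 and 6.5 from MeOH/acetate buffered saline 72:28. k and D = (tR − tD)/tD; triplicate runs.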

Series [3] deals with human monocytic leukemia cell line THP-1. Nature of the series: In vitro cell viability, CCK-8. It counts as cell-based. The conditions noted are these: for IC50: Homo sapiens, THP-1. The method, then: (§1) The effect of the compounds on viability of eukaryotic cells was evaluated on human leukemia cell line THP-1, human synovial cell line SW982, and isolated primary porcine monocytes-delivered macrophages (MDM). The general cytotoxic effect was studied on THP-1 cells in the serum-free medium (only THP-1 as the only cells used in this study are able to survive in serum-free medium). Most of the compounds had no cytotoxic effect on THP-1 cells. […] This could be caused by the direct interaction of such compounds with serum proteins or by the effect of mitogens, cytokines, and hormones present in the serum. Obviously, the full medium is closer to physiological conditions in living organisms, so it can be assumed that these compounds could be non-toxic there.
(§2) Human monocytic leukemia cell line THP-1 and human synovial cell line SW982 were purchased from the European Collection of Cell Cultures (ECACC, Salisbury, UK) and were used for determination of the influence of test compounds on cell viability, as described previously. These cell lines represent typical suspension and adherent cells, respectively. They were cultivated with test substances in the presence or absence of fetal bovine serum (FBS) in the cultivation medium, and the relative cell viability (the ratio between cells treated with compounds and cells treated only with DMSO) was determined by CCK-8 kit (Sigma) after 24 h.

The test system of series [4] is human synovial cell line SW982. Kind of series: In vitro cell viability, CCK-8. It counts as cell-based. The conditions noted are these: 10% fetal bovine serum. The method, then:
as §1, §2

For series [5], the system named is methicillin-resistant S. aureus SA 3202. Nature of the series: In vitro antistaphylococcal activity, microtitration broth MIC. In kind it is cell-based. The conditions noted are these: Staphylococcus aureus.
Series [6] deals with vancomycin-resistant E. faecalis (VRE) 368. Kind of series: In vitro antienterococcal activity, microtitration broth MIC. It counts as cell-based, Enterococcus faecalis.
Series [7] concerns porcine monocyte-derived macrophages (MDM). Nature of the series: In vitro cell viability, CCK-8. In kind it is cell-based. The settings on record: Sus scrofa, Macrophage, 10% fetal bovine serum. The method, then: as §1
Porcine monocyte-derived macrophages (MDMs) were prepared, as described previously. Briefly, blood was collected from three-month-old pigs and peripheral blood mononuclear cells (PBMC) were isolated by gradient centrifugation (830× g, 40 min) using Histopaque-1077 (Sigma). CD14+ cells were isolated by positive magnetic bead selection with LS separation columns (Miltenyi Biotec, Bergisch Gladbach, Germany). Isolated monocytes were cultured in 96-well plates at a concentration of 1 × 10^5 cells per well in 0.2 mL of DMEM supplemented with 10% FBS and 1% antibiotics (Antibiotic Antimycotic Solution 100 × 10,000 units penicillin, 10 mg streptomycin, and 25 μg amphotericin B per mL; Sigma) and incubated for five days at 37 °C in 5% CO2 to differentiate into macrophages. Then, MDMs were cultured for 24 h with tested substances and the relative cell viability was determined by CCK-8 kit (Sigma) following manufacturer instructions.

For series [8], the system named is vancomycin-resistant E. faecalis (VRE) 725B. Kind of series: In vitro antienterococcal activity, microtitration broth MIC. It counts as cell-based, Enterococcus faecalis. The settings on record: 24 h.
The test system of series [9] is Mycobacterium smegmatis ATCC 700084. Nature of the series: In vitro antimycobacterial activity, broth dilution MIC. It counts as cell-based. The conditions noted are these: Mycolicibacterium smegmatis. On the technique in general: In broth dilution the organism is exposed to a series of concentrations in liquid medium.
Series [10] deals with S. aureus, MRSA, E. faecalis, VRE, M. smegmatis, M. marinum. Kind of series: In vitro antimicrobial screening, all tested strains. In kind it is cell-based. The conditions noted are these: antibacterial/antimycobacterial screening.
[11] abbreviates: M. marinum CAMP 5644, 21 days, read-out: MIC MM.
Where [12] appears, read: M. marinum CAMP 5644, read-out: log(1/MIC [M]) MM (converted).
The mark [13] stands for this setting: 10% fetal bovine serum, 24 h, read-out: IC50 THP-1 10% FSB.
Setting [14] is: 10% fetal bovine serum, read-out: log(1/IC50 [M]) THP-1 10% FSB (converted).
Setting [15] is: serum-free medium, 24 h, read-out: IC50 THP-1 SFM.
The mark [16] stands for this setting: serum-free medium, read-out: log(1/IC50 [M]) THP-1 SFM (converted).
The mark [17] stands for this setting: 24 h, read-out: IC50 SW982 10% FSB.
Where [18] appears, read: read-out: log(1/IC50 [M]) SW982 10% FSB (converted).
[19] abbreviates: 24 h, MRSA SA 3202, read-out: log(1/MIC [M]) MRSA3 (converted).
Where [20] appears, read: MRSA SA 3202, 24 h, read-out: MIC MRSA3.
Setting [21] is: 24 h, VRE 368, read-out: log(1/MIC [M]) VRE2 (converted).
[22] abbreviates: VRE 368, 24 h, read-out: MIC VRE2.
[23] abbreviates: 24 h, read-out: IC50 MDM 10% FSB.
Where [24] appears, read: read-out: log(1/IC50 [M]) MDM 10% FSB (converted).
[25] abbreviates: read-out: log(1/MIC [M]) VRE3 (converted).
Setting [26] is: ATCC700084, 72 h, M. smegmatis ATCC 700084, three days, read-out: MIC MS.
The mark [27] stands for this setting: ATCC700084, M. smegmatis ATCC 700084, read-out: log(1/MIC [M]) MS (converted).

`O=C(/C=C/c1ccc(Cl)c(Cl)c1)Nc1ccc(C(F)(F)F)cc1` [2j, (2E)-3-(3,4-Dichlorophenyl)-N-[4-(trifluoromethyl)phenyl]prop-2-enamide]: the MIC in [1] (setting [11]) is 2.78e-06 M (≈ 1 µg/mL); in series [1] (setting [12]) it was 2.75e-06 M (≈ 0.992 µg/mL); in series [5] (setting [19]), 6.92e-07 M (≈ 0.249 µg/mL); in series [5] (setting [20]) it was 6.94e-07 M (≈ 0.25 µg/mL); in [6] (setting [21]), 1.12e-05 M (≈ 4.04 µg/mL); in series [6] (setting [22]), 1.11e-05 M (≈ 4 µg/mL). For the same compound, the MIC in series [8] (read-out: MIC VRE3) is 1.11e-05 M (≈ 4 µg/mL); in series [8] (setting [25]), 1.12e-05 M (≈ 4.04 µg/mL); in [9] (setting [26]) it was 2.78e-06 M (≈ 1 µg/mL); in [9] (setting [27]), 2.75e-06 M (≈ 0.992 µg/mL). For the same compound, the log k in [2] is 1.0364. In series [2], the “log D6.5” value came out at 1.0370. The “log D7.4” value in series [2] came to 0.9945. In addition, the IC50 in series [3] (setting [13]) was greater than 1e-05 M; in [3] (setting [14]), greater than 1e-05 M; in [3] (setting [15]), 9e-07 ± 1e-06 M; in series [3] (setting [16]), 8.91e-07 M; in series [4] (setting [17]), greater than 1e-05 M; in series [4] (setting [18]), greater than 1e-05 M. Besides, the IC50 in [7] (setting [23]) and in series [7] (setting [24]) was greater than 1e-05 M throughout. In series [10], the “antimicrobial activity (in words)” value is “active”.
`O=C(/C=C/c1ccc(Cl)c(Cl)c1)Nc1ccc(OC(F)(F)F)cc1` [2k, (2E)-3-(3,4-Dichlorophenyl)-N-[4-(trifluoromethoxy)phenyl]prop-2-enamide]: the MIC in [1] (setting [11]) was 2.66e-06 M (≈ 1 µg/mL); in [1] (setting [12]), 2.95e-07 M (≈ 0.111 µg/mL); in series [5] (setting [19]) it was 1.32e-06 M (≈ 0.496 µg/mL); in [5] (setting [20]) it was 1.33e-06 M (≈ 0.5 µg/mL); in series [6] (setting [21]) it was 4.27e-05 M (≈ 16 µg/mL); in series [6] (setting [22]), 4.25e-05 M (≈ 16 µg/mL). Also, the MIC in series [8] (read-out: MIC VRE3) is 2.13e-05 M (≈ 8.01 µg/mL); in [8] (setting [25]), 2.14e-05 M (≈ 8.04 µg/mL); in series [9] (setting [26]), 1.06e-05 M (≈ 3.99 µg/mL); in [9] (setting [27]), 2.34e-06 M (≈ 0.882 µg/mL). The same compound had a log k in [2] of 1.0513. Besides, the “log D6.5” value in series [2] came to 1.0544. For the same compound, in series [2], the “log D7.4” value is listed as 1.0053. In [3] (2k 1.0 µM, serum-free medium), the “reduction of cell viability, CCK-8 assay” value is listed as 50%. Moreover, the IC50 in series [3] (setting [13]) is greater than 1e-05 M; in series [3] (setting [14]), greater than 1e-05 M; in [3] (setting [15]), 1e-06 ± 1e-06 M; in series [3] (setting [16]) it was 5.01e-07 M; in [4] (setting [17]) it was greater than 1e-05 M; in series [4] (setting [18]), greater than 1e-05 M. Also, the IC50 in series [7] (setting [23]) and in [7] (setting [24]) was greater than 1e-05 M in each case. The “antimicrobial activity (in words)” value in [10] was “active”.
Turning to `O=C(/C=C/c1ccc(Cl)c(Cl)c1)Nc1cc(C(F)(F)F)cc(C(F)(F)F)c1` [2q, (2E)-N-[3,5-bis(Trifluoromethyl)phenyl]-3-(3,4-dichlorophenyl)prop-2-enamide], the MIC in series [1] (setting [11]) is 2.92e-07 M (≈ 0.125 µg/mL); in [1] (setting [12]), 2.63e-06 M (≈ 1.13 µg/mL); in [5] (setting [19]) it was 2.95e-07 M (≈ 0.126 µg/mL); in series [5] (setting [20]), 2.92e-07 M (≈ 0.125 µg/mL); in [6] (setting [21]), 1.86e-05 M (≈ 7.97 µg/mL); in series [6] (setting [22]), 1.87e-05 M (≈ 8 µg/mL). The MIC in [8] (read-out: MIC VRE3) is 4.67e-06 M (≈ 2 µg/mL); in series [8] (setting [25]), 4.68e-06 M (≈ 2 µg/mL); in [9] (setting [26]), 2.34e-06 M (≈ 1 µg/mL); in series [9] (setting [27]), 1.07e-05 M (≈ 4.59 µg/mL). The compound further yielded a log k in series [2] of 1.4731. In addition, the “log D6.5” value in series [2] turned out to be 1.4967. Moreover, the “log D7.4” value in [2] was 1.4717. Moreover, the IC50 in [3] (setting [13]) is greater than 1e-05 M; in series [3] (setting [14]), greater than 1e-05 M; in [3] (setting [15]) it was 5e-07 ± 1e-06 M; in series [3] (setting [16]), 1e-06 M; in series [4] (setting [17]), greater than 1e-05 M; in series [4] (setting [18]) it was greater than 1e-05 M. Besides, in [7] (setting [23]), the IC50 lay in the range of 5e-06 to 1e-05 M. Besides, in series [10], the “antimicrobial activity (in words)” value is “active”.
